For the test, the target named is T1, human PF4 (Homo sapiens, UniProt P02776).
T1 construct: PF4 is a 70 amino acid, lysine-rich 7.8 kDa platelet-specific protein; made in house; host or cells: Escherichia coli BL21DE3 pLysS (pT7-7) and/or Drosophila S2 cells
T1 sequence (P02776 32-101): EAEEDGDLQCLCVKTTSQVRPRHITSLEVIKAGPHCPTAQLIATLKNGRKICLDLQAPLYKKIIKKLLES
The experiment in a line: Inhibition of PF4 tetramer formation (BS3 cross-linking, SDS-PAGE). The class given is biochemical. The following applies: for inhibition at 5 µM: 5 μM inhibitor; for inhibition at 5 µM / inhibition at 10 µM / inhibition at 1 µM / inhibition at 3 µM: read-out: % inhibition of PF4 tetramer formation at single concentration of inhibitor; for inhibition at 10 µM: 10 μM inhibitor (column A); for IC50: read-out: IC50 of PF4 tetramer formation inhibition; for inhibition at 1 µM: 1 μM inhibitor; for inhibition at 3 µM: 3 μM inhibitor (column A). The protocol:
Compounds of Examples 1-38, 65-301, 303, 305, 307, 309, 311, 313, 314, 316, and 318-404 were tested using SDS PAGE analysis of BS3 crosslinked PF4 for their ability to prevent PF4 tetramer formation. […] See, Suvarna et al., Throm. Res, 122:211-220 (2008), which is hereby incorporated by reference, at least for a detailed description of this technique.
cDNA encoding human PF4 was cloned into the plasmid μMT/BiPN5-His A (Invitrogen Corp., Carlsbad CA) for expression in the Drosophila Expression System (Invitrogen, Carlsbad, CA). Cloning was performed using Bg1 II and Age I cloning sites. A hexanucleotide encoding Bg1 II site was then eliminated by site-directed mutagenesis so that the expressed protein contained full-length wild type (wt) PF4 or PF4^K50E with an identical sequence as their counterparts expressed in E. coli. See, method described in Sachais et al (Sachais, B. S. et al. (2012). Blood 119(25): 5955-5961). PF4 expression was induced by adding copper sulfate (0.5 mM). The induced S2 cells were incubated in serumfree Insect-Xpress™ media (Lonza, Walkersville, MD) for 3-5 days; supernatants were collected, sodium azide (0.02% final concentration) and EDTA (2.5 mM final concentration) were added, and the media were filtered through an Express® PLUS 0.22 μm filter (Millipore Corp., Billerica, MA).
Wild-type (WT) human PF4 in the pT7-7 vector (Novagen, Madison, WI) was expressed in the Escherichia coli strain BL21DE30 pLysS (Stratagene, La Jolla, CA), and purified and characterized as described by Rauova et al. (Rauova, L. et al. (2006). Blood 107(6): 2346-2353) and Park et al., (Blood, 75:1290-1295 (1990)), which are hereby incorporated by reference. Briefly, recombinant protein was isolated from the supernatant of the bacterial lysate by affinity chromatography using a HiTrap high-performance (HP) affinity column. WT PF4 was purified from the media on a heparin HiTrap® column on an ÄTKAPrime™ system (GE Healthcare) at 4° C. in Tris (10 mM), EDTA (1 mM), and pH 8 buffer. Media was loaded in buffer containing NaCl (0.5 M) and PF4 was eluted at 1.8 M NaCl using a linear gradient. Fractions containing purified PF4 as detected by silver staining of 12% NuPAGE Bis-Tris gels (Invitrogen) were pooled, concentrated and buffer exchanged into 50 mM HEPES, 0.5 M NaCl, pH—7.2 using an Amicon® Ultra centrifugal filter (3K NMWL, Millipore Corp). Protein was quantified using a BCA assay.
Compounds of Examples 1-38, 65-196, and 209-228 were then tested for their ability to inhibit PF4 tetramer formation using a cross-linking assay as described in Rauova cited above. Specifically, hPF4 (10 μg/ml) in phosphate-buffered saline (PBS) was incubated at 37° C. for 15 min in the absence of the antagonistic compounds (control sample) and presence of compounds. Cross-linking and SDS-PAGE analysis were then performed as described in “Analysis of PF4 multimerization” of Rauova. The relative amounts of PF4 in each of the monomer, dimer, trimer and tetramer form were calculated by analyzing the samples on a 12% SDS-polyacrylamide gel under reducing conditions. Bands were quantified using the Kodak ID Image Analysis system (Kodak, Rochester, NY). The SigmaMarker™ reagent served as the molecular weight standard. Data was compiled and bar graphed as % PF4 for the tetramer, trimer, dimer, and monomer as a function of concentration for the test and control samples.
This experiment was performed in a manner similar to experiment 1, but PF4 (10 μg/ml) in PBS was independently incubated with compounds of Examples 1-38, 65-196, and 209-228 for 60 min at room temperature, followed by the addition of cross-linking reagent bis(sulfosuccinimidyl)suberate (0.2 mM) for 30 min at room temperature. The reaction was stopped by adding NuPAGE® lithium dodecyl sulfate (LDS) sample buffer, and denatured by heating to 70° C. for 10 min according to the manufacturer's instructions. […]

SMILES strings stand for the structures.

In the case of `CCOC(=O)CNC(=O)C1C(=O)c2ccc(C(=O)c3ccc4c(c3)C(=O)C(C(=O)NCC(=O)OCC)C4=O)cc2C1=O` (stereo not shown) [Example 30, 5,5′-5,5′-carbonylbis([(1,3-dioxo-indane-2-carbonyl)-amino]-acetic acid ethyl ester)], the inhibition at 5 µM stood at 12% and the inhibition at 10 µM was 58%.
Take `CCCCC(=O)C1C(=O)c2ccc(C(=O)c3ccc4c(c3)C(=O)C(C(=O)CCCC)C4=O)cc2C1=O` (stereo not shown) [Example 153, 5-(1,3-dioxo-2-pentanoyl-2,3-dihydro-1H-indene-5-carbonyl)-2-pentanoyl-2,3-dihydro-1H-indene-1,3-dione]: the inhibition at 5 µM came out at 100%, the inhibition at 10 µM was found to be 100% and the half-maximal inhibitory concentration (IC50) was 2400 nM.
As for `Cc1ccc(NC(=O)C2C(=O)c3ccc(C(=O)c4ccc5c(c4)C(=O)C(C(=O)Nc4ccc(C)cc4)C5=O)cc3C2=O)cc1` (stereo not shown) [Example 91, N-(4-methylphenyl)-5-{2-[(4-methylphenyl)carbamoyl]-1,3-dioxo-2,3-dihydro-1H-indene-5-carbonyl}-1,3-dioxo-2,3-dihydro-1H-indene-2-carboxamide], the inhibition at 5 µM came to 20% and the inhibition at 10 µM is 35%.
As to `CSCC[C@H](NC(=O)OC(C)(C)C)C(=O)C1C(=O)c2ccc(Oc3ccc4c(c3)C(=O)C(C(=O)[C@H](CCSC)NC(=O)OC(C)(C)C)C4=O)cc2C1=O` (stereo partly drawn) [Example 270, tert-butyl N-[(2S)-1-[5-({2-[(2S)-2-{[(tert-butoxy)carbonyl]amino}-4-(methylsulfanyl)butanoyl]-1,3-dioxo-2,3-dihydro-1H-inden-5-yl}oxy)-1,3-dioxo-2,3-dihydro-1H-inden-2-yl]-4-(methylsulfanyl)-1-oxobutan-2-yl]carbamate], the inhibition at 1 µM is 10% and the inhibition at 3 µM was determined as 24%.
For `O=C1CC(=O)c2cc(S(=O)(=O)c3ccc4c(c3)C(=O)CC4=O)ccc21` [Example 12, 5,5′-sulfonylbis(1h-indene-1,3(2h)-dione)], the half-inhibitory concentration (IC50) stood at 2320 nM.
`CO[C@@H]1O[C@H](C(=O)C2C(=O)c3ccc(S(=O)(=O)c4ccc5c(c4)C(=O)C(C(=O)[C@H]4O[C@@H](OC)[C@H]6OC(C)(C)O[C@@H]64)C5=O)cc3C2=O)[C@H]2OC(C)(C)O[C@H]12` (stereo partly drawn) [Example 220, 2-[(3aS,4S,6R,6aS)-6-methoxy-2,2-dimethyl-tetrahydro-2H-furo[3,4-d][1,3]dioxole-4-carbonyl]-5-({2-[(3aS,4S,6R,6aS)-6-methoxy-2,2-dimethyl-tetrahydro-2H-furo[3,4-d][1,3]dioxole-4-carbonyl]-1,3-dioxo-2,3-dihydro-1H-inden-5-yl}sulfonyl)-2,3-dihydro-1H-indene-1,3-dione]: the inhibition at 5 µM came out at 90%, the inhibition at 10 µM was found to be 92% and the IC50 came to 2500 nM.
As for `CC(C)(C)OC(=O)N1CCC[C@@H]1C(=O)C1C(=O)c2ccc(S(=O)(=O)c3ccc4c(c3)C(=O)C(C(=O)[C@H]3CCCN3C(=O)OC(C)(C)C)C4=O)cc2C1=O` (stereo partly drawn) [Example 162, tert-butyl (2R)-2-[5-({2-[(2R)-1-[(tert-butoxy)carbonyl]pyrrolidine-2-carbonyl]-1,3-dioxo-2,3-dihydro-1H-inden-5-yl}sulfonyl)-1,3-dioxo-2,3-dihydro-1H-indene-2-carbonyl]pyrrolidine-1-carboxylate], the inhibition at 5 µM turned out to be 86%, the inhibition at 10 µM was 94% and the IC50 was found to be 2600 nM.
For `CC(C)(C)OC(=O)N1CC2(CC(C(=O)C3C(=O)c4ccc(-c5ccc6c(c5)C(=O)C(C(=O)C5CC7(C5)CN(C(=O)OC(C)(C)C)C7)C6=O)cc4C3=O)C2)C1` (stereo not shown) [Example 211, tert-butyl 6-(2′-{2-[(tert-butoxy)carbonyl]-2-azaspiro[3.3]heptane-6-carbonyl}-1,1′,3,3′-tetraoxo-1H,1′H,2H,2′H,3H,3′H-[5,5′-biindene]-2-carbonyl)-2-azaspiro[3.3]heptane-2-carboxylate], in that order: 76%, 95% and 3300 nM.
With `CSCCC(=O)C1C(=O)c2ccc(S(=O)(=O)c3ccc4c(c3)C(=O)C(C(=O)CCSC)C4=O)cc2C1=O` (stereo not shown) [Example 278, 2-[3-(methylsulfanyl)propanoyl]-5-({2-[3-(methylsulfanyl)propanoyl]-1,3-dioxo-2,3-dihydro-1H-inden-5-yl}sulfonyl)-2,3-dihydro-1H-indene-1,3-dione], the inhibition at 1 µM was determined as 1%, the inhibition at 3 µM was determined as 18% and the IC50 was 3000 nM.
Turning to `CC(C)(C)OC(=O)N1C[C@@H]2[C@H](C1)[C@H]2C(=O)C1C(=O)c2ccc(-c3ccc4c(c3)C(=O)C(C(=O)[C@H]3[C@@H]5CN(C(=O)OC(C)(C)C)C[C@@H]53)C4=O)cc2C1=O` (stereo partly drawn) [Example 216, tert-butyl (1R,5S,6R)-6-{2′-[(1R,5S,6R)-3-[(tert-butoxy)carbonyl]-3-azabicyclo[3.1.0]hexane-6-carbonyl]-1,1′,3,3′-tetraoxo-1H,1′H,2H,2′H,3H,3′H-[5,5′-biindene]-2-carbonyl}-3-azabicyclo[3.1.0]hexane-3-carboxylate], the inhibition at 5 µM was determined as 82%, the inhibition at 10 µM came to 91% and the half-inhibitory concentration (IC50) was 2500 nM.
As for `O=C1c2ccc(S(=O)(=O)c3ccc4c(c3)C(=O)C(C(=O)C3CCOC3)C4=O)cc2C(=O)C1C(=O)C1CCOC1` (stereo not shown) [Example 147, 5-{[1,3-dioxo-2-(oxolane-3-carbonyl)-2,3-dihydro-1H-inden-5-yl]sulfonyl}-2-(oxolane-3-carbonyl)-2,3-dihydro-1H-indene-1,3-dione], the inhibition at 5 µM stood at 55% and the inhibition at 10 µM was 59%.
Turning to `O=C(NCC1CCOC1)C1C(=O)c2ccc(S(=O)(=O)c3ccc4c(c3)C(=O)C(C(=O)NCC3CCOC3)C4=O)cc2C1=O` (stereo not shown) [Example 362, 5-[(1,3-dioxo-2-{[(oxolan-3-yl)methyl]carbamoyl}-2,3-dihydro-1H-inden-5-yl)sulfonyl]-1,3-dioxo-N-[(oxolan-3-yl)methyl]-2,3-dihydro-1H-indene-2-carboxamide], the inhibition at 1 µM turned out to be 33% and the inhibition at 3 µM stood at 53%.
For the compound `O=C(NC1CCOCC1)C1C(=O)c2ccc(S(=O)(=O)c3ccc4c(c3)C(=O)C(C(=O)NC3CCOCC3)C4=O)cc2C1=O` (stereo not shown) [Example 368, N-(oxan-4-yl)-5-({2-[(oxan-4-yl)carbamoyl]-1,3-dioxo-2,3-dihydro-1H-inden-5-yl}sulfonyl)-1,3-dioxo-2,3-dihydro-1H-indene-2-carboxamide], the inhibition at 1 µM is 1% and the inhibition at 3 µM was 45%.

The term IC50 denotes the concentration at which inhibition is half-maximal.

The record behind these values is patent publication US20250281424A1 (New York Blood Center, Inc, priority 2020, published 2025).
